Laboratory results taken from patent US11117899B2, “[1,2,4]triazolo[1,5-c]pyrimidine derivative as A2A receptor inhibitor” (MEDSHINE DISCOVERY INC., priority 2017, dated 2021).

How the values were obtained:
[1] = target: T1, Human adenosine A2A receptor (Homo sapiens, UniProt P29274); experiment: Human adenosine A2A receptor calcium flux assay; assay type: cell-based; conditions: A2A stable CHO cell strain, antagonist mode against agonist NECA at EC80, FLIPR Fluo-4
T1 construct: host or cells: CHO
T1 sequence (P29274 whole entry): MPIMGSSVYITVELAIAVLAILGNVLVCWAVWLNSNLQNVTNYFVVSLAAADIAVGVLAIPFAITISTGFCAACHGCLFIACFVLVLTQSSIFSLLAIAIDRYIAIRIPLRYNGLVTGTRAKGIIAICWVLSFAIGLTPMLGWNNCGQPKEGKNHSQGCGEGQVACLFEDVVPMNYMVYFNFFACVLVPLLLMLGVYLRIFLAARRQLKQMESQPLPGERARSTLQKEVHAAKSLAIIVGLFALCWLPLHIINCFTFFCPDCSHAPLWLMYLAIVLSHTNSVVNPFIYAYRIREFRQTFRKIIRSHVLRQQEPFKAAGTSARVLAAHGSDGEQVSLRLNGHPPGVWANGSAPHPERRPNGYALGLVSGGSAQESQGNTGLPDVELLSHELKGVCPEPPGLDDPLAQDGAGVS
Description: Human adenosine A2A receptor calcium flux assay
A2A stable cell strain was constructed by Shanghai WuXi PharmaTech, and the host cell was CHO.
Fluo-4 Direct Kit (Invitrogen, Cat. No. F10471). After the fluorescent detection reagent (specifically binding to calcium ions and causing an increase in fluorescence signal) in the kit was incubated with the cells for a suitable period of time, the compound was added to stimulate the cells to cause changes in intracellular calcium flux, thereby causing changes in the fluorescent signal, which can reflect the strength of the agonistic or inhibitory activity of the compound.
F12+10% fetal bovine serum+geneticin 300 ug/ml+blasticidin 2 ug/ml Compound dilution buffer:
Hanks Balanced Salt Buffer (Invitrogen)+20 mM HEPES, configured before each use
The test compounds were dissolved in DMSO to prepare 10 mM stock solutions. The test compounds were diluted to 0.2 mM with DMSO, and the reference compound CGS-15943 was diluted to 0.015 mM with DMSO. Next, 10 points of three-fold serial dilutions were made with ECHO. 900 nl was transferred to the compound plate (Greiner-781280), and 30 ul of compound dilution buffer was added. The final starting concentration of the test compounds was 1 uM and CGS-15943 was 0.075 uM.
Cryopreserved A2A cells were resuscitated, and then resuspended in culture medium to 1×10^6 cells/ml. The suspension was seeded into 384-well polylysine-coated cell plates (Greiner-781946) at 20 μl/well and incubated overnight in a 5% CO2 incubator at 37° C.
The cell plate prepared the day before was taken out from the incubator, and 20 ul of 2× Fluo-4 Direct™ buffer was added to each well. The plate was incubated for 50 minutes in a 5% CO2 incubator at 37° C. and allowed to stand at room temperature for 10 minutes.
Dilution of agonist NECA: 10 points of three-fold serial dilutions were made with Echo for NECA from a starting concentration of 0.15 mM. 900 nL was then transferred to the corresponding compound plate; and then 30 μl of compound dilution buffer was added to the corresponding compound plate. The final starting concentration was 750 nM.
FLIPR instrument software was run. According to the programmed procedure, 10 ul of compound dilution buffer was added to the cell plate and the fluorescence signal was read. 10 ul of the agonist reference compound at the indicated concentration was then added to the cell plate and the fluorescent signal was read. After reading, the data was exported by the “Max-Min”, “Read 90 to Maximum allowed” method in the software, and the EC80 of the A2A cell line was calculated. The agonist was prepared at a concentration of 6× EC80. A 6× EC80 concentration of a reference compound agonist of the corresponding cells was prepared with a buffer solution, and added at 30 ul/well to the corresponding compound plate for use.
FLIPR instrument software was run. According to the programmed procedure, 10 μl of the test compounds and reference compound at an indicated concentration was added to the cell plate and the fluorescence signal was read. 10 ul of the reference compound agonist at a concentration of 6× EC80 was then added to the cell plate and the fluorescent signal was read. For the agonist detection of the compounds, the data was exported by the “Max-Min”, “Read 1 to 90” method in the software. For the antagonist detection of the compound, the data was exported by the “Max-Min”, “Read 90 to Maximum allowed” method in the software. Data were analyzed by GraphPad Prism 5.0 and the IC50 values of the test compounds were calculated.

[2] = Pharmacokinetics in female Balb/c mice; assay type: in vivo; conditions: mouse, plasma, single intravenous injection / single oral administration; for bioavailability: read-out: Bioavailability F; for AUC: read-out: Concentration integral AUC; for half-life: read-out: Half-life T1/2 (converted)
Description: Objective: To test the pharmacokinetics of compounds in female Balb/c mice in vivo
Balb/c mice (female, 15-30 g, 7-9 weeks old, Shanghai Lingchang)
The pharmacokinetics profile of the compounds in rodent after intravenous injection and oral administrations was tested using a standard protocol. In the assay, the candidate compound was formulated into a clear solution and administrated to the mice through a single intravenous injection, and formulated into a uniform suspension and administrated to the mice through a single oral administration. […] The whole blood samples were collected within 24 hours, centrifuged at 3000 g at 4° C. for 15 minutes, and plasma samples were obtained by separating the supernatant. 20 times volume of acetonitrile solution containing an internal standard was added to precipitate proteins. After centrifugation, the supernatant was collected, to which an equal volume of water was added, and further centrifuged to collect the supernatant. The LC-MS/MS method was used to quantitatively analyze the plasma concentration, and the pharmacokinetics parameters, such as peak concentration, peak time, clearance rate, half-life, area under the curve, and bioavailability were calculated.

IC50 [1]	SMILES	other results
2.97 nM	Cc1cc(-c2c(-c3ccccc3)nc(N)n3nc(C(F)(F)F)nc23)cc(C)n1 [Example C-2]	clearance [2]: 8.76 mL/min/kg; bioavailability [2]: 50.4%; AUC [2]: 24.9 µM·h; half-life [2]: 2 h
4.99 nM	Cc1cc(-c2c(-c3ccc(F)cc3)nc(N)n3nc(C(F)(F)F)nc23)cc(Cl)n1 [Example C-41]	clearance [2]: 5.53 mL/min/kg; bioavailability [2]: 41.2%; AUC [2]: 25.1 µM·h; half-life [2]: 8.04 h
1.65 nM	Cc1cc(-c2c(-c3ccccc3)nc(N)n3nc(C(F)(F)F)nc23)cc(C(F)(F)F)n1 [Example C-1]	clearance [2]: 11.7 mL/min/kg; bioavailability [2]: 40.5%; AUC [2]: 13.2 µM·h; half-life [2]: 3.95 h
1.02 nM	COCc1nc2c(-c3cc(C)nc(C(F)(F)F)c3)c(-c3ccccc3)nc(N)n2n1 [Example C-13]	–
0.8 nM	Cc1cc(-c2c(-c3ccccc3)nc(N)n3nc(C)nc23)cc(Cl)n1 [Example C-21]	–
1.72 nM	Cc1cc(-c2c(-c3ccc(C)o3)nc(N)n3nc(C#N)nc23)cc(C(F)(F)F)n1 [Example C-74]	–
1.35 nM	CCc1nc2c(-c3cc(C)nc(C(F)(F)F)c3)c(-c3ccccc3)nc(N)n2n1 [Example C-7]	–
19 nM	CC(C)c1cc(-c2c(-c3ccccc3)nc(N)n3ncnc23)cc(C(F)(F)F)n1 [Example B-34]	–
0.12 nM	Nc1nc(-c2ccccc2)c(-c2ccc3[nH]nnc3c2)c2ncnn12 [Example B-33]	–
0.14 nM	Nc1nc(-c2ccccc2)c(-c2ccc(O)c(Cl)c2)c2ncnn12 [Example B-4]	–
1.3 nM	Cc1cc(-c2c(-c3ccccc3F)nc(N)n3ncnc23)cc(C(F)(F)F)n1 [Example A-17]	–
0.53 nM	Cc1cc(-c2c(-c3ccccc3)nc(N)n3nc(C)nc23)cc(C(F)(F)F)n1 [Example C-5]	–
14.1 nM	COc1ccccc1-c1nc(N)n2nc(C(F)(F)F)nc2c1-c1cc(C)nc(C(F)(F)F)c1 [Example C-31]	–
5.61 nM	Cc1cc(-c2c(-c3ccc(F)cc3)nc(N)n3nc(C#N)nc23)cc(C(F)(F)F)n1 [Example C-76]	–
50.5 nM	Nc1nc(-c2ccccc2)c(-c2cc(C3CC3)nc(C(F)(F)F)c2)c2ncnn12 [Example B-23]	–
2.63 nM	Nc1nc(-c2ccccc2)c(-c2ccc3[nH]nnc3c2)c2nc(COCc3ccccc3)nn12 [Example C-23]	–
9.92 nM	COc1ccc(-c2c(-c3ccccc3)nc(N)n3ncnc23)cc1Cl [Example B-3]	–
4.68 nM	CCc1nc2c(-c3ccc4nn[nH]c4c3)c(-c3ccccc3F)nc(N)n2n1 [Example C-37]	–
2.06 nM	Nc1nc(-c2ccc(F)cc2)c(-c2ccc3nn[nH]c3c2)c2nc(CO)nn12 [Example C-45]	–
10.9 nM	COc1cc(F)ccc1-c1nc(N)n2nc(C)nc2c1-c1cc(C)nc(C(F)(F)F)c1 [Example C-39]	–
1.04 nM	COc1ccc(-c2nc(N)n3ncnc3c2-c2cc(C)nc(C(F)(F)F)c2)cc1 [Example A-6]	–
1.21 nM	COc1ccc(F)cc1-c1nc(N)n2ncnc2c1-c1cc(Cl)nc(C(F)(F)F)c1 [Example A-32]	–
73.8 nM	Nc1nc(-c2ccc(F)cc2F)c(-c2ccc3[nH]nnc3c2)c2nc(C(F)(F)F)nn12 [Example C-34]	–
4.9 nM	COc1cc(F)ccc1-c1nc(N)n2ncnc2c1-c1cc(C)nc(C)c1 [Example A-24]	–
1.77 nM	COc1ccccc1Cc1nc2c(-c3cc(C)nc(C)c3)c(-c3ccccc3)nc(N)n2n1 [Example C-16]	–
50 nM	Cc1nc2c(-c3ccc4[nH]nnc4c3)c(-c3ccc(F)cc3F)nc(N)n2n1 [Example C-49]	–

IC50 [1]	SMILES	other results
4.93 nM	COc1ccccc1-c1nc(N)n2nc(C)nc2c1-c1cc(C)nc(C(F)(F)F)c1 [Example C-27]	–
0.9 nM	Cc1cc(-c2c(-c3ccn(C)n3)nc(N)n3ncnc23)cc(C(F)(F)F)n1 [Example A-21]	–
0.83 nM	Cc1cc(-c2c(-c3cc(F)cc(F)c3)nc(N)n3ncnc23)cc(C(F)(F)F)n1 [Example A-5]	–
11.3 nM	Cc1ccc(-c2nc(N)n3nc(C(F)(F)F)nc3c2-c2ccc3[nH]nnc3c2)o1 [Example C-48]	–
37.4 nM	Cc1cc(-c2c(-c3ccccc3Cl)nc(N)n3ncnc23)cc(C)n1 [Example A-28]	–
0.71 nM	Nc1nc(-c2ccccc2)c(-c2ccc(O)c(C(F)(F)F)c2)c2ncnn12 [Example B-13]	–
0.44 nM	Nc1nc(-c2ccccc2)c(-c2cc(Cl)c(O)c(Cl)c2)c2ncnn12 [Example B-15]	–
0.83 nM	Cc1cc(-c2c(-c3ccc(F)cc3)nc(N)n3nc(C#N)nc23)cc(C)n1 [Example C-62]	–
4.07 nM	Cc1cc(-c2c(-c3ccc(C#N)cc3)nc(N)n3ncnc23)cc(C(F)(F)F)n1 [Example A-14]	–
0.68 nM	COCc1nc2c(-c3cc(C)nc(C)c3)c(-c3ccccc3)nc(N)n2n1 [Example C-14]	–
0.77 nM	Cc1cc(-c2c(-c3ccc(F)cc3)nc(N)n3nc(C(C)(C)O)nc23)cc(Cl)n1 [Example C-78]	–
71.3 nM	Nc1nc(-c2ccccc2)c(-c2ccc3c(c2)CC(=O)N3)c2ncnn12 [Example B-20]	–
48 nM	Nc1nc(-c2ccccc2)c(-c2ccc3c(c2)OCO3)c2ncnn12 [Example B-9]	–
1.82 nM	Cc1cc(-c2c(-c3ccccc3)nc(N)n3nc(C(=O)O)nc23)cc(C(F)(F)F)n1 [Example C-80]	–
1.13 nM	Cc1cc(-c2c(-c3ccc(Cl)cc3)nc(N)n3ncnc23)cc(C(F)(F)F)n1 [Example A-9]	–
16.9 nM	N#Cc1nc2c(-c3cc(Cl)nc(C(F)(F)F)c3)c(-c3ccc(F)cc3)nc(N)n2n1 [Example C-79]	–
7.92 nM	CCc1nc2c(-c3cc(C)nc(C(F)(F)F)c3)c(-c3ccc(F)cc3F)nc(N)n2n1 [Example C-36]	–
10.4 nM	Cc1cc(-c2c(-c3ccccc3)nc(N)n3nc(CC4CC4)nc23)cc(C(F)(F)F)n1 [Example C-17]	–
13.6 nM	Cc1cc(-c2c(-c3ccc(C)o3)nc(N)n3nc(C(F)(F)F)nc23)cc(C(F)(F)F)n1 [Example C-47]	–
0.74 nM	Cc1cc(-c2c(-c3ccccc3)nc(N)n3nc(C)nc23)cc(C)n1 [Example C-6]	–
0.67 nM	Cc1cc(-c2c(-c3ccc(F)cc3)nc(N)n3nc(CO)nc23)cc(Cl)n1 [Example C-44]	–
20.4 nM	COc1ccccc1Cc1nc2c(-c3cc(C)nc(C(F)(F)F)c3)c(-c3ccccc3)nc(N)n2n1 [Example C-15]	–
15.3 nM	CCc1nc2c(-c3ccc4nn[nH]c4c3)c(-c3ccc(F)cc3F)nc(N)n2n1 [Example C-38]	–
0.38 nM	Cc1cc(-c2c(-c3cccc(F)c3)nc(N)n3ncnc23)cc(C(F)(F)F)n1 [Example A-2]	clearance [2]: 44.9 mL/min/kg; bioavailability [2]: 62.1%; AUC [2]: 5.93 µM·h; half-life [2]: 0.8 h
0.47 nM	Nc1nc(-c2ccccc2)c(-c2cc(C(F)(F)F)c3[nH]ncc3c2)c2ncnn12 [Example B-14]	–
0.17 nM	Nc1nc(-c2ccccc2)c(-c2ccc3[nH]ncc3c2)c2ncnn12 [Example B-7]	–
